# How the values were obtained:
# [1] = tested on: Raw 264.7 cells; assay: LN (Laminin 421)-induced immune cell migration, Transwell; format: cell-based; conditions: Mus musculus, RAW264.7; 3 µM compound, LN (Laminin 421 1 µg/ml), 24 hours, % inhibition compared to control group; read-out: Migration inhibitor % (3uM)
# Description: Cell migration was assessed based on the method described in the prior literature (Park, S. G. et al. Human lysyl-tRNA synthetase is secreted to trigger proinflammatory response. Proceedings of the National Academy of Sciences, 2005, 102.18: 6356-6361.). The specific experimental method is as follows. A Transwell (Corning#3421-5µm pore) was coated with gelatin (0.5mg/ml), and then Raw 264.7 cells (1 x 10^5 cells/well) were seeded in the upper chamber. Serum-free medium (Serum Free DMEM, 500 µl) containing LN (Laminin 421 1 µg/ml) was added to the lower chamber. Each compound was treated at a concentration of 3µM in the upper chamber. After 24 hours, the cells were fixed with 70% methanol for 30 minutes and stained with 50% hematoxylin for 30 minutes. Non-migrating cells on the upper side of the membrane were removed with a cotton swab, and the membrane was mounted on a slide. Migrating cells on the lower side of the membrane were observed under a high-power microscope, and the number of cells was measured from the obtained images and expressed as the inhibition rate (% inhibition) compared to the control group.
# [2] = target: T1, KARS1 and 37LR (Homo sapiens, UniProt Q15046); assay: Cell-free ELISA of KARS1 and 37LR (laminin receptor) binding; conditions: 10 µM compound, 1 hour, plate coated with KARS1 (1-207aa), LRF
# T1 construct: KARS1 (1-207aa)
# Description: Next, based on the mechanism of action, a cell-free ELISA analysis was conducted to select compounds with high inhibitory activity on the binding of KARS1 and LR (laminin receptor).
# [3] = Microsomal metabolic stability, rat; format: in vitro ADME
# Description: (§1) Metabolic stability (MS) evaluation was conducted for the selected compounds by measuring in vitro stability in two species, rat and human, according to the microsomal stability measurement method. As a result, it was identified that MS varied depending on the transformation of parts A, B, and C.
# [4] = Microsomal metabolic stability, human; format: in vitro ADME
# Description: as §1
# [5] = Rat pharmacokinetics (po and iv) and bioavailability; format: in vivo; conditions: po; for Cmax / Tmax / half-life / AUC: in vivo
# Description: For this purpose, formulations suitable for peroral administration (po) and intravenous injection (iv) for each compound were first selected to ensure stable PK progression.
# The formulation was selected under the condition of maintaining a clear solution for more than 1 hour at 10 and 30 mpk doses based on po, and the iv formulation was modified when iv use was not possible based on po (Table 8).
# To confirm the oral administration potential of the selected compounds, 10 mpk rat po PK was conducted. The PK profile and key indicators after administering 10 mpk to five compounds, C0001, 25, 41, 42, and 43, are shown in Figure 3 and Table 9.
# Based on the previous 10 mpk po rat PK results, 30 mpk po rat PK was conducted for four compounds, C0001, 25, 41, and 43, to confirm changes in the blood PK profile of the substances with increasing doses.
# For these compounds, 2 mpk iv rat PK was conducted to calculate bioavailability (BA) (Table 11).
# [6] = tested on: Raw264.7 cells; assay: KARS1-induced trans-migration assay; format: cell-based, mouse; conditions: Mus musculus, RAW264.7; 1 µM compound; read-out: KARS1-induced Raw264.7 cell migration (% inhibition, 1uM)
# Description: C0001 inhibits the binding of KARS1 and 67LR, thereby blocking the migration of monocytes/macrophages and suppressing inflammation. Accordingly, a trans-migration assay using mouse macrophages (Raw264.7) was conducted to preliminarily screen drugs that inhibit the migration of monocytes/macrophages.
# Based on this, when KARS1 protein was directly treated externally instead of LN, the trans-migration of Raw264.7 was induced, and the cell migration inhibitory effect of the KARS1 inhibitor C0001 was confirmed. It was verified that C0001, which specifically binds to KARS1, can inhibit cell migration by binding to extracellular KARS1, in addition to the mechanism of inhibiting cell membrane migration of KARS1 induced by laminin and its binding to 67LR, thereby enabling this analysis to be used as a direct method for evaluating in vitro activity against KARS1.
# Next, preliminary candidate substances with high inhibitory activity at 1 µM were treated at concentrations of 0.1~4 µM for analysis.
# T1 sequence (Q15046 1-207): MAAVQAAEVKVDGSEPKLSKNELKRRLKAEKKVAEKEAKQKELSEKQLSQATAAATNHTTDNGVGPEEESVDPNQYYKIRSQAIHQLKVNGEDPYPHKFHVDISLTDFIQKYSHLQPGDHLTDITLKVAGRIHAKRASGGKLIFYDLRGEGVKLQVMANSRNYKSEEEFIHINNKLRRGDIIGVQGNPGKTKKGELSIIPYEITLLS
inhibition at 10 µM [2] [%],Metabolic stability (% remaining at 30 min) Rat [3] [%],Metabolic stability (% remaining at 30 min) Human [4] [%],"Cmax ([5]; 10 mg/kg, 10 mpk) [ng/mL]","Tmax ([5]; 10 mg/kg, 10 mpk) [h]","half-life ([5]; 10 mg/kg, 10 mpk) [h]","Cmax ([5]; 30 mg/kg, 30 mpk) [ng/mL]","Tmax ([5]; 30 mg/kg, 30 mpk) [h]","half-life ([5]; 30 mg/kg, 30 mpk) [h]","AUC ([5]; 30 mg/kg, 30 mpk) [ng·h/mL]","AUC (ng*h/ml) ([5]; 10 mpk, 10 mg/kg)","AUC (ng*h/ml) ([5]; 10 mpk, listed as 41 (C0189), 10 mg/kg)",AUC value increase at 30 mpk ([5]; 30 mpk compared with 10 mpk),"AUC ([5]; 10 mg/kg, 10 mpk) [ng·h/mL]",Structure (SMILES),inhibition at 3 µM [1] [%],inhibition at 1 µM [6] [%]
69.6,58,51,4230,0.83,1.96,6470,1,2.13,28500,"exceeding 5,000 ng*h/ml","11,859 ng*h/ml",approximately 2.4 times,,"COc1ccc(CCN(c2nc3cccc(F)c3s2)C(C)c2cccc(N3CC[C@@H](C(=O)O)C3)c2)cc1 (stereo partly drawn) [Compound 41, (3R)-1-(3-(1-((7-fluorobenzo[d]thiazol-2-yl)(4-methoxyphenethyl)-amino)ethyl)phenyl)pyrrolidine-3-carboxylic acid]",58.7,90.2
65.6,43,76,240,0.67,1.32,,,,,,,,1420,"COc1ccc(CCN(c2nc3cccc(F)c3s2)C(C)c2ccc(N3CC[C@H](C(=O)O)C3)cc2)cc1 (stereo partly drawn) [Compound 42, (3S)-1-(4-(1-((7-fluorobenzo[d]thiazol-2-yl)(4-methoxyphenethyl)-amino)ethyl)phenyl)pyrrolidine-3-carboxylic acid]",63.1,85.8

# Reference: patent publication EP4656630A1, “NOVEL COMPOUND AS LYSYL-TRNA SYNTHETASE 1 INHIBITOR, AND USE THEREOF” (Zymedi Co., Ltd., priority 2023, dated 2024)
